Consider two compounds from patent publication EP0320630A1, “Enantiometric iodobenzamides” (THE VANDERBILT UNIVERSITY, priority 1987, dated 1989).

Assay [1] addresses T1, dopamine D-2 receptor (Rattus norvegicus, UniProt P61169).
T1 construct: 90 µL of the striatal membrane preparation; from tissue; host or cells: rat striatum (membrane homogenate)
The experiment in a line: Blocking of [3H]spiperone binding to rat striatal membranes. The settings on record: radioligand [3H]spiperone at 0.5 nM; rat striatal membrane preparation; 30 min at 37 °C. The method, then: (§1) The procedure, described by de […]., and Beart P.M., Eur. J. Pharmacol. 106 133-139 (1984), is as follows: Male Sprague-Dawley rats (150-200 g) were killed by decapitation and their brains quickly removed and dissected on ice. Striata were dissected and homogenized in 40 vol of ice-cold 50 mM Tris-HCl buffer (pH 7.4) containing 120 mM sodium chloride, 5 mM potassium chloride, 2 mM calcium chloride, and 1 mM magnesium chloride using a Brinkman Polytron. The suspension was centrifuged at 30,000 x g for 10 min at 4 °C, and the pellet was resuspended in 40 vol of fresh buffer. The suspension was incubated at 37 °C for 10 min, centrifuged again at 30,000 x g for 10 min at 4 °C, and the final pellet was resuspended with the polytron in 200 vol of ice cold buffer. […] Tubes were incubated for 30 min at 37 °C, poured over Whatman GF/B filters under vacuum, and the filters were rinsed three times with 4 mL of ice cold buffer.

Assay [2] concerns the target T1, dopamine D-2 receptor. The experiment in a line: Blocking of [3H](S)-sulpiride binding to rat striatal membranes. The settings on record: radioligand [3H](S)-sulpiride at 5.0 nM; rat striatal membrane preparation; 30 min at 37 °C. The method, then:
as §1

T1 sequence (P61169 whole entry): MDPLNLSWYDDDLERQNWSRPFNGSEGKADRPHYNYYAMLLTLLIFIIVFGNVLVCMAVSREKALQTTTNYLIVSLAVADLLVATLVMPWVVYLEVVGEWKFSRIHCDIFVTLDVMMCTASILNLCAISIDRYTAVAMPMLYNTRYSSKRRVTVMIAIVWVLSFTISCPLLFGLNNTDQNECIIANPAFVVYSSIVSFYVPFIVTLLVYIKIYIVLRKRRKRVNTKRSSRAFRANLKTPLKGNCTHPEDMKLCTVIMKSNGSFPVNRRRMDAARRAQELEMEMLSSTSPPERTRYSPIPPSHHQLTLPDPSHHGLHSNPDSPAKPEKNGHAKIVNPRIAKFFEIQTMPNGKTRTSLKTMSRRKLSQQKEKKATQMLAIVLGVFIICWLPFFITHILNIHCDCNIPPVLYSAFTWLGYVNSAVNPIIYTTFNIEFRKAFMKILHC

For the compound `CCN1CCC[C@@H]1CNC(=O)c1cc(I)ccc1OC`, the IC50 on dopamine D-2 receptor [1] came to 560 ± 200 nM; on dopamine D-2 receptor [2], 145 ± 5 nM.

Turning to `CCN1CCC[C@H]1CNC(=O)c1cc(I)ccc1OC`, the IC50 was 16.4 ± 4.9 nM at dopamine D-2 receptor [1] and 3.3 ± 0.9 nM on dopamine D-2 receptor [2].
